The source of these data is patent publication US20110076686A1 (priority 2008, published 2011).

In the experiment the test system is Legionella pneumophila. The class given is cell-based. The note with it: DVC step.
Regarding `CC1=C(C(=O)O)N2C(=O)[C@@H](NC(=O)[C@H](N)c3ccccc3)[C@H]2SC1` [cephalexin], the “effectiveness as DNA gyrase inhibitor / cellular proliferation inhibitor” value is on record as “very effective DNA gyrase inhibitors”; the “elongation of Legionella pneumophila cells and blocking of division” value (from here on “elongation”) is recorded as “allow the Legionella pneumophila cells to elongate in preparation for cell division but actually block these elongated cells from dividing”.

With `O=C(O)c1cn(C2CC2)c2cc(N3CCNCC3)c(F)cc2c1=O` [ciprofloxacin, Ciprofloxacin], the “effectiveness as DNA gyrase inhibitor / cellular proliferation inhibitor” value is given as “very effective DNA gyrase inhibitors”; the “elongation” value is on record as “allow the Legionella pneumophila cells to elongate in preparation for cell division but actually block these elongated cells from dividing”.

For `CCn1cc(C(=O)O)c(=O)c2ccc(C)nc21` [nalidixic acid], the “effectiveness as DNA gyrase inhibitor / cellular proliferation inhibitor” value is on record as “not a reliably effective DNA gyrase inhibitor”; the “elongation” value is given as “does not provide sufficient elongation”.
